# Test results: US7135572B2 (CJ Corp, priority 2001, dated 2006)
# Tests used:
# [1] = target: T1, cyclooxygenase-1 (Homo sapiens, UniProt P23219); experiment: Inhibition of cyclooxygenase-1 in U-937 cells (PGE2 quantitation); type: cell-based; conditions: for Inhibitory effects of cyclooxygenase (COX): COX-1: U-937 cells
# T1 construct: The cultured U-937 (humane lymphoma cell, obtained from Korean cell line bank) was centrifuged to collect the pellet; endogenous in cells; host or cells: U-937 (human lymphoma cell line, Korean cell line bank)
# T1 sequence (P23219 24-599): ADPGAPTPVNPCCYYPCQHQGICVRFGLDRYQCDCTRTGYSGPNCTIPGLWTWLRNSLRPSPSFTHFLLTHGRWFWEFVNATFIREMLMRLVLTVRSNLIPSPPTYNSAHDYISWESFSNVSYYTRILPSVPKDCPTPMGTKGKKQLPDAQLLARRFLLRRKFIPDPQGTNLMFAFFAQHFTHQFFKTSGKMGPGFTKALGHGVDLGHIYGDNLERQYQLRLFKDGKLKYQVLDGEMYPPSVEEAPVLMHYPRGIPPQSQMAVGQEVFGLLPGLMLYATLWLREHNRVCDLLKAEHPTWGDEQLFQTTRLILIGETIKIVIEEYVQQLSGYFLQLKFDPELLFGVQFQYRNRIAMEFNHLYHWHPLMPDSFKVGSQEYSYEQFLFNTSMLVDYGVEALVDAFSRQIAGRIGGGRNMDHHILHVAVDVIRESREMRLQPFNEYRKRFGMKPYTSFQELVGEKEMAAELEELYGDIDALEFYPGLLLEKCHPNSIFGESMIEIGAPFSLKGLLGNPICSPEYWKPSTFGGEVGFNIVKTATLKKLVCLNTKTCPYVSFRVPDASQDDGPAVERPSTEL
# Protocol: (§1) In order to investigate pharmacologically the selective inhibition activity against cyclooxygenase-2 enzyme, the inhibitive effects against cyclooxygenase-1 and cyclooxygenase-2 were measured by two methods as follows.
# Then, the pellet was diluted with 1×HBSS(Hank's balanced salt solutin) at the concentration of 1×10^6 cells/ml, and 1 ml of them was transferred into each well of 12-well plates, and then dissolved with DMSO. 5μl of the diluted sample solution, and 5μl of DMSO vehicle were added therein and mixed, and the mixture was cultured at 37° C. in Co2 incubator for 15 minutes. Arachidonic acid as a substrate was dissolved in ethanol to prepare a stock solution with a concentration of 10 mM, followed by diluting with 1×HBSS to prepare the solution of 1 mM. 10 μl of 1 mM Arachidonic acid solution was added to each of the treated wells, and the mixture was cultured at 37° C. in CO2 incubator for 30 minutes. The cell solution of each well was collected in the centrifuge tube and was centrifuged at 4° C. for 5 minutes at 10,000 rpm. As PGE2 existed in the supernatant separated from collected cell, the concentration of PGE2 was quantitated by using monoclonal kit from Cayman Chemicals, and the concentration of samples and vehicle were compared to estimate the inhibition ratio (%) of each compound against cyclooxygenase-1. Ultimately, the inhibition effect against the cyclooxygenase-1 enzyme was obtained from the result.
# [2] = target: T2, cyclooxygenase-2 (Mus musculus, UniProt Q05769); experiment: Inhibition of cyclooxygenase-2 in Raw 264.7 cells treated with interferon γ and LPS (PGE2 EIA); type: cell-based; conditions: for Inhibitory effects of cyclooxygenase (COX): COX-2: Raw 264.7 cells; for selectivity of cyclooxygenase-2 compared with the comparative substance (in words): COX-2 versus COX-1
# T2 construct: endogenous in cells; host or cells: Raw 264.7 (Korean cell line bank), aspirin-pretreated, induced with interferon gamma and LPS
# T2 sequence (Q05769 18-604): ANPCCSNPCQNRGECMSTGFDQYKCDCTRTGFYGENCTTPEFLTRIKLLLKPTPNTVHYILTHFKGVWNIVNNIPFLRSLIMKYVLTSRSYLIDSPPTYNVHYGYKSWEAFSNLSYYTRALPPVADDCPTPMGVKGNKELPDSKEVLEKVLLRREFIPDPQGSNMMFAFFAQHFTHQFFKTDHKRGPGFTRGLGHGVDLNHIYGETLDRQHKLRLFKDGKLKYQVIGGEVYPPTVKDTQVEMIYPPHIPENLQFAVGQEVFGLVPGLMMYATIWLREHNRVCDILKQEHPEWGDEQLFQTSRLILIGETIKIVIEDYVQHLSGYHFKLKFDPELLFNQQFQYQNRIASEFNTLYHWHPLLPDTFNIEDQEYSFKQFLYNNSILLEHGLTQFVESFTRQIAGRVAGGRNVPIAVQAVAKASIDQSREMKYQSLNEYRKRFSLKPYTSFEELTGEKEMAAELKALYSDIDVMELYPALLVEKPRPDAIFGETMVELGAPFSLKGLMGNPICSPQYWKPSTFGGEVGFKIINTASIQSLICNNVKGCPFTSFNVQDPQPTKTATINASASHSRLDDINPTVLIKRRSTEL
# Protocol: as §1
# And then, each samples were replaced with new media and cultured for 30 minutes. In addition, the samples was treated with 100 units/ml of interferon Υ and 100 ng/ml of lipopolysaccharide(LPS), and cultured for 18 hours. Then, the media was transferred to other tubes and the PGE 2 was quantitated by using EIA kit from Cayman Chemicals.
Structure (SMILES),Inhibitory effects of cyclooxygenase (COX): COX-1 ([1]; 3 μM),Inhibitory effects of cyclooxygenase (COX): COX-1 ([1]; 10 μM),Inhibitory effects of cyclooxygenase (COX): COX-1 ([1]; 30 μM),inhibition effect against cyclooxygenase-1 compared with Celecoxib (in words) ([1]; same condition as Celecoxib),Inhibitory effects of cyclooxygenase (COX): COX-2 ([2]; 30 nM),Inhibitory effects of cyclooxygenase (COX): COX-2 ([2]; 100 nM),Inhibitory effects of cyclooxygenase (COX): COX-2 ([2]; 300 nM),selectivity of cyclooxygenase-2 compared with the comparative substance (in words) [2],"inhibition effect against cyclooxygenase-2 compared with Celecoxib (in words) ([2]; low concentration, same condition as Celecoxib)"
"Cc1nc(-c2ccccc2)n(-c2ccc(S(N)(=O)=O)cn2)n1 [Example 14, 6-(3-methyl-5-phenyl-[1,2,4]triazole-1-yl)-pyridine-3-sulfonic acid amide]",12.8 % inhibition,20.4 % inhibition,28.9 % inhibition,much lower level,72.1 % inhibition,99.8 % inhibition,99.9 % inhibition,better than any other substances,more excellent
"COc1ccccc1-c1nc(C)nn1-c1ccc(S(N)(=O)=O)cc1 [Example 11, 4-[5-(2-methoxy-phenyl)-3-methyl-[1,2,4]triazole-1-yl]-benzenesulfonamide]",54.0 % inhibition,61.3 % inhibition,67.2 % inhibition,–,25.0 % inhibition,25.2 % inhibition,37.7 % inhibition,–,–
"Cc1nc(-c2ccc(Br)cc2)n(-c2ccc(S(N)(=O)=O)cn2)n1 [Example 17, 6-[5-(4-bromo-phenyl)-3-methyl-[1,2,4]triazole-1-yl]-pyridine-3-sulfonic acid amide]",5.6 % inhibition,28.7 % inhibition,32.7 % inhibition,–,47.8 % inhibition,66.9 % inhibition,78.2 % inhibition,–,–
"Cc1nc(-c2ccc(F)cc2)n(-c2ccc(S(C)(=O)=O)cc2)n1 [Example 26, 5-(4-fluoro-phenyl)-1-(4-methanesulfonyl-phenyl)-3-methyl-1H-[1,2,4]triazole]",42.0 % inhibition,51.2 % inhibition,55.1 % inhibition,–,20.1 % inhibition,47.7 % inhibition,64.0 % inhibition,–,–
"Cc1nc(-c2ccc(F)cc2)n(-c2ccc(S(N)(=O)=O)cc2)n1 [Example 2, 4-[5-(4-fluoro-phenyl)-3-methyl-[1,2,4]triazole-1-yl]-benzenesulfonamide]",36.9 % inhibition,53.4 % inhibition,67.8 % inhibition,–,28.8 % inhibition,34.4 % inhibition,45.7 % inhibition,–,–
"COc1ccc(-c2nc(C)nn2-c2ccc(S(N)(=O)=O)cn2)cc1 [Example 19, 6-[5-(4-methoxy-phenyl)-3-mehtyl-[1,2,4]triazole-1-yl]-pyridine-3-sulfonic acid amide]",46.9 % inhibition,61.0 % inhibition,77.6 % inhibition,–,34.8 % inhibition,43.1 % inhibition,69.5 % inhibition,–,–
"Cc1ccc(-c2nc(C)nn2-c2ccc(S(N)(=O)=O)cn2)cc1 [Example 18, 6-(3-methyl-5-p-toly-[1,2,4]triazole-1-yl)-pyridine-3-sulfonic acid amide]",50.4 % inhibition,62.9 % inhibition,75.1 % inhibition,–,26.4 % inhibition,37.5 % inhibition,46.5 % inhibition,–,–
"Cc1nc(-c2ccc(F)cc2)n(-c2ccc(S(N)(=O)=O)cn2)n1 [Example 15, 6-[5-(4-fluoro-phenyl)-3-methyl-[1,2,4]triazole-1-yl]-pyridine-3-sulfonic acid amide]",35.7 % inhibition,41.0 % inhibition,46.9 % inhibition,–,27.1 % inhibition,28.8 % inhibition,38.9 % inhibition,–,–
"Cc1nc(-c2ccc(Cl)cc2)n(-c2ccc(S(C)(=O)=O)cc2)n1 [Example 28, 5-(4-chloro-phenyl)-1-(4-methanesulfonyl-phenyl)-3-methyl-1H-[1,2,4]triazole]",72.9 % inhibition,73.1 % inhibition,85.4 % inhibition,–,33.9 % inhibition,38.8 % inhibition,57.8 % inhibition,–,–
"Cc1nc(-c2ccc(Br)cc2)n(-c2ccc(S(C)(=O)=O)cn2)n1 [Example 31, 2-[5-(4-bromo-phenyl)-3-methyl-[1,2,4]triazole-1-yl]-5-methanesulfonyl-pyridine]",81.4 % inhibition,82.0 % inhibition,88.1 % inhibition,–,69.5 % inhibition,99.8 % inhibition,99.9 % inhibition,hardly different,–
"Cc1nc(-c2cccc(Cl)c2)n(-c2ccc(S(N)(=O)=O)cn2)n1 [Example 21, 6-[5-(3-chloro-phenyl)-3-methyl-[1,2,4]triazole-1-yl]-pyridine-3-sulfonic acid amide]",44.7 % inhibition,56.7 % inhibition,75.6 % inhibition,–,43.9 % inhibition,48.8 % inhibition,67.8 % inhibition,–,–
